Measurements published in ChEMBL document CHEMBL5537143, “Synthesis and antimicrobial properties of guanidine-functionalized labdane type diterpenoids” (Eur J Med Chem, 2024).
Values after ≈ are worked out from the molar mass of the structure shown.

Assays:
[1] = test system: Staphylococcus epidermidis; experiment: Antimicrobial activity against Staphylococcus epidermidis ATCC 12228 assessed as inhibition of microbial growth incubated for 24 hrs by broth-microdilution assay; format: functional; details: Staphylococcus epidermidis, ATCC 12228, read-out: MIC
Staphylococcus aureus [2] = experiment: Antimicrobial activity against Staphylococcus aureus 29213 assessed as inhibition of microbial growth incubated for 24 hrs by broth-microdilution assay; format: functional
Staphylococcus aureus [3] = experiment: Antimicrobial activity against methicillin resistant Staphylococcus aureus 43300 assessed as inhibition of microbial growth incubated for 24 hrs by broth-microdilution assay; format: functional; details: read-out: MIC
[4] = test system: Staphylococcus epidermidis; experiment: Antimicrobial activity against Staphylococcus epidermidis ATCC 35984 assessed as inhibition of microbial growth incubated for 24 hrs by broth-microdilution assay; format: functional; details: Staphylococcus epidermidis, ATCC 35984, read-out: MIC
Candida albicans [5] = experiment: Antifungal activity against Candida albicans ATCC 90028 assessed as reduction in fungal growth incubated for 48 hrs by CLSI based analysis; format: functional
Pseudomonas aeruginosa [6] = experiment: Antimicrobial activity against Pseudomonas aeruginosa ATCC 27853 assessed as inhibition of microbial growth incubated for 24 hrs by broth-microdilution assay; format: functional; details: Pseudomonas aeruginosa
Pseudomonas aeruginosa [7] = experiment: Antimicrobial activity against Pseudomonas aeruginosa PAO1 assessed as inhibition of microbial growth incubated for 24 hrs by broth-microdilution assay; format: functional
Klebsiella pneumoniae [8] = experiment: Antimicrobial activity against Klebsiella pneumoniae ATCC 13883 assessed as inhibition of microbial growth incubated for 24 hrs by broth-microdilution assay; format: functional
Klebsiella pneumoniae [9] = experiment: Antimicrobial activity against Klebsiella pneumoniae ATCC BAA1705 assessed as inhibition of microbial growth incubated for 24 hrs by broth-microdilution assay; format: functional
[10] = Acute toxicity in zebrafish embryo assessed as mortality rate at 16 microg/ml preincubated with compound for 24 hrs and measured after 24 hrs post fertilization; parameters: species or system Danio rerio; details: in vivo, at 16 µg/mL
[11] = Acute toxicity in zebrafish embryo preincubated with compound for 24 hrs and measured after 24 hrs post fertilization; parameters: species or system Danio rerio; details: in vivo
[12] = Acute toxicity in zebrafish embryo assessed as mortality rate at 16 microg/ml preincubated with compound for 24 hrs and measured after 48 to 72 hrs post fertilization; parameters: species or system Danio rerio; details: in vivo, at 16 µg/mL
[13] = Acute toxicity in zebrafish embryo assessed as mortality rate at 0.7 microg/ml preincubated with compound for 24 hrs and measured after 48 to 72 hrs post fertilization; parameters: species or system Danio rerio; details: in vivo, at 0.7 µg/mL
[14] = Acute toxicity in zebrafish embryo assessed as mortality rate at 32 microg/ml preincubated with compound for 24 hrs and measured after 48 to 72 hrs post fertilization; parameters: species or system Danio rerio; details: in vivo, at 32 µg/mL
Candida albicans [15] = experiment: Synergistic antifungal activity against Candida albicans ATCC 10231 assessed as fractional inhibitory concentration index incubated for 48 hrs in presence of Voriconazole by CLSI based analysis; format: functional
Klebsiella pneumoniae [16] = experiment: Synergistic antimicrobial activity against Klebsiella pneumoniae ATCC BAA1705 assessed as inhibition of microbial growth incubated for 24 hrs in presence of Imipenem by checkerboard assay; format: functional; details: read-out: MIC100
Candida albicans [17] = experiment: Synergistic antifungal activity against Candida albicans ATCC 10231 assessed as reduction in fungal growth incubated for 48 hrs in presence of Voriconazole by CLSI based analysis; format: functional; details: read-out: MIC100
Candida albicans [18] = experiment: Synergistic antifungal activity against Candida albicans ATCC 10231 assessed as Voriconazole MIC incubated for 48 hrs by CLSI based analysis; format: functional; details: read-out: MIC100
Staphylococcus aureus [19] = experiment: Synergistic antimicrobial activity against methicillin resistant Staphylococcus aureus 43300 assessed as Oxacillin MIC incubated for 24 hrs by checkerboard assay; format: functional; details: read-out: MIC100
Staphylococcus aureus [20] = experiment: Antimicrobial activity against Staphylococcus aureus ATCC 43300 assessed as inhibition of microbial growth incubated for 24 hrs by broth-microdilution assay; format: functional; details: Staphylococcus aureus, ATCC 43300, read-out: MIC100
Klebsiella pneumoniae [21] = experiment: Synergistic antimicrobial activity against Klebsiella pneumoniae ATCC BAA1705 assessed as fractional inhibitory concentration index incubated for 24 hrs in presence of Imipenem by checkerboard assay; format: functional
Klebsiella pneumoniae [22] = experiment: Antimicrobial activity against Carbapenem -resistant Klebsiella pneumoniae ATCC 13883 assessed as inhibition of microbial growth incubated for 24 hrs by broth-microdilution assay; format: functional
Klebsiella pneumoniae [23] = experiment: Antimicrobial activity against Carbapenem-resistant Klebsiella pneumoniae ATCC BAA1705 assessed as inhibition of microbial growth incubated for 24 hrs by broth-microdilution assay; format: functional
Candida albicans [24] = experiment: Antifungal activity against Candida albicans ATCC 10231 assessed as reduction in fungal growth incubated for 48 hrs by CLSI based analysis; format: functional; details: read-out: MIC100
Staphylococcus aureus [25] = experiment: Synergistic antimicrobial activity against methicillin resistant Staphylococcus aureus 43300 assessed as inhibition of microbial growth incubated for 24 hrs in presence of Oxacillin by checkerboard assay; format: functional; details: read-out: MIC100
[26] = Acute toxicity in zebrafish embryo assessed as mortality rate at 32 microg/ml preincubated with compound for 24 hrs and measured after 24 hrs post fertilization; parameters: species or system Danio rerio; details: in vivo, at 32 µg/mL
Klebsiella pneumoniae [27] = experiment: Synergistic antimicrobial activity against Klebsiella pneumoniae ATCC BAA1705 assessed as Imipenem MIC incubated for 24 hrs by checkerboard assay; format: functional; details: read-out: MIC100
Staphylococcus aureus [28] = experiment: Synergistic antimicrobial activity against methicillin resistant Staphylococcus aureus 43300 assessed as fractional inhibitory concentration index incubated for 24 hrs in presence of Oxacillin by checkerboard assay; format: functional
[29] = Acute toxicity in zebrafish embryo assessed as mortality rate at 4 microg/ml preincubated with compound for 24 hrs and measured after 48 to 72 hrs post fertilization; parameters: species or system Danio rerio; details: in vivo, at 4 µg/mL
[30] = Acute toxicity in zebrafish embryo assessed as mortality rate at 8 microg/ml preincubated with compound for 24 hrs and measured after 48 to 72 hrs post fertilization; parameters: species or system Danio rerio; details: in vivo, at 8 µg/mL
Pseudomonas aeruginosa [31] = experiment: Antimicrobial activity against Pseudomonas aeruginosa PAO1 assessed as inhibition of microbial growth at 128 microg/ml incubated for 24 hrs by broth-microdilution assay relative to control; format: functional
Pseudomonas aeruginosa [32] = experiment: Antimicrobial activity against Pseudomonas aeruginosa 27853 assessed as inhibition of microbial growth at 128 microg/ml incubated for 24 hrs by broth-microdilution assay relative to control; format: functional
[33] = Acute toxicity in zebrafish embryo assessed as mortality rate at 2 microg/ml preincubated with compound for 24 hrs and measured after 48 to 72 hrs post fertilization; parameters: species or system Danio rerio; details: in vivo, at 2 µg/mL
[34] = Acute toxicity in zebrafish embryo preincubated with compound for 24 hrs and measured after 48 to 96 hrs post fertilization; parameters: species or system Danio rerio; details: in vivo
Staphylococcus aureus [35] = experiment: Antimicrobial activity against Staphylococcus aureus ATCC 29213 assessed as inhibition of microbial growth incubated for 24 hrs by broth-microdilution assay; format: functional; details: Staphylococcus aureus, ATCC 29213, read-out: MIC100

CC(=O)O[C@](C)(CCC1[C@](C)(OC(C)=O)CC[C@H]2C(C)(C)CCC[C@]12C)C(=O)N=C(N)N (stereo partly specified)
MIC [1]: 4 µg/mL | MIC (Staphylococcus aureus [2]): 4 µg/mL | MIC (Staphylococcus aureus [3]): 4 µg/mL | MIC [4]: 4 µg/mL | MIC (Candida albicans [5]; read-out: MIC): 16 µg/mL (≈ 35.4 µM)

NC[C@H]1O[C@H](O[C@H]2[C@H](O)[C@@H](O[C@H]3O[C@H](CO)[C@@H](O)[C@H](N)[C@H]3O)[C@H](N)C[C@@H]2N)[C@H](N)C[C@@H]1O [TOBRAMYCIN]
MIC (Pseudomonas aeruginosa [6]; ATCC 27853, read-out: MIC100): 2 µg/mL | MIC (Pseudomonas aeruginosa [7]; Pseudomonas aeruginosa, PAO1, read-out: MIC100): 2 µg/mL | MIC (Klebsiella pneumoniae [8]; read-out: MIC100): 2 µg/mL

CC1=C(CC/C=C(/C)C(=O)NC(=N)N)[C@@]2(C)CCCC(C)(C)[C@@H]2CC1
MIC [1]: 4 µg/mL | MIC (Staphylococcus aureus [2]): 4 µg/mL | MIC (Staphylococcus aureus [3]): 4 µg/mL | MIC [4]: 4 µg/mL | MIC (Candida albicans [5]; read-out: MIC): 8 µg/mL (≈ 23.2 µM)

C[C@@H](O)[C@H]1C(=O)N2C(C(=O)O)=C(SCCNC=N)C[C@H]12 [IMIPENEM ANHYDROUS]
MIC (Klebsiella pneumoniae [9]; read-out: MIC100): ≥ 4 µg/mL

CC1=C(CC/C=C(\C)C(=O)N=C(N)N)[C@@]2(C)CCCC(C)(C)[C@@H]2CC1
MIC [1]: 4 µg/mL | MIC (Staphylococcus aureus [2]): 4 µg/mL | MIC (Staphylococcus aureus [3]): 4 µg/mL | MIC [4]: 4 µg/mL | MIC (Candida albicans [5]; read-out: MIC): 8 µg/mL (≈ 23.2 µM)

CC1(C)CCC[C@]2(C)[C@H]3CC[C@@](C)(CC(=O)NC(=N)N)O[C@]3(C)CC[C@@H]12
mortality at 24 h, 16 microg/ml [10]: 10% | LC50 at 24 h [11]: 93.4 µg/mL (≈ 257 µM) | mortality at 16 microg/ml [12]: 100% | mortality at 24 h, 0.7 microg/ml [13]: 5% | mortality at 24 h, 32 microg/ml [14]: 100% | fractional inhibitory concentration index (FICI) (Candida albicans [15]): 0.129 | MIC (Klebsiella pneumoniae [16]): 16 µg/mL | MIC (Candida albicans [17]): 2 µg/mL | MIC [1]: 4 µg/mL | MIC (Candida albicans [18]): 0.125 µg/mL | MIC (Staphylococcus aureus [2]): 4 µg/mL | MIC (Staphylococcus aureus [3]): 4 µg/mL | MIC [4]: 4 µg/mL | MIC (Staphylococcus aureus [19]): 0.5 µg/mL | MIC50 (Pseudomonas aeruginosa [6]; ATCC 27853): 128 µg/mL | MIC (Staphylococcus aureus [20]): 8 µg/mL | MIC65 (Pseudomonas aeruginosa [7]): 128 µg/mL | fractional inhibitory concentration index (FICI) (Klebsiella pneumoniae [21]): 0.6 | MIC (Klebsiella pneumoniae [9]; read-out: MIC): 32 µg/mL | MIC (Klebsiella pneumoniae [22]): 32 µg/mL | MIC (Klebsiella pneumoniae [23]): 32 µg/mL | MIC (Candida albicans [24]): 16 µg/mL (≈ 44 µM) | MIC (Staphylococcus aureus [25]): 2 µg/mL | mortality at 24 h, 32 microg/ml [26]: 5% | MIC (Klebsiella pneumoniae [27]): 2 µg/mL | MIC (Candida albicans [5]; read-out: MIC): 16 µg/mL (≈ 44 µM) | fractional inhibitory concentration index (FICI) (Staphylococcus aureus [28]): 0.55 | mortality at 4 microg/ml [29]: 0% | mortality at 24 h, 8 microg/ml [30]: 0% | inhibition at 128 µg/mL (Pseudomonas aeruginosa [31]): 65% | inhibition at 128 µg/mL (Pseudomonas aeruginosa [32]): 50% | mortality at 2 microg/ml [33]: 0% | LC50 [34]: 11.5 µg/mL (≈ 31.6 µM) | MIC (Staphylococcus aureus [35]): 8 µg/mL | MIC (Klebsiella pneumoniae [8]; read-out: MIC): 16 µg/mL

C[C@@H]1[C@H](O)[C@@H](C)/C=C/C=C/C=C/C=C/C=C/C=C/C=C/[C@H](O[C@@H]2O[C@H](C)[C@@H](O)[C@H](N)[C@@H]2O)C[C@@H]2O[C@](O)(C[C@@H](O)C[C@@H](O)[C@H](O)CC[C@@H](O)C[C@@H](O)CC(=O)O[C@H]1C)C[C@H](O)[C@H]2C(=O)O [AMPHOTERICIN B]
MIC (Candida albicans [24]): 4 µg/mL (≈ 4.33 µM) | MIC (Candida albicans [5]; read-out: MIC100): 4 µg/mL (≈ 4.33 µM)
